Results from the supplement of paper PMC10307832.

Experiments:
Assay in all cases: relative viability (nuclei count vs DMSO), 5 days (fraction); higher = more cells survive
NCI-H2087 = test system: NCI-H2087
How it was run: (§1)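 Values are medians from duplicate plates. Each reflects relative viability, defined as the nuclei count of treated wells over that of vehicle wells. Lung cancer cell lines in 1536-well plates were pin-tool dosed one day after seeding with one drug alone or with a fixed anchor-drug dose plus five library-drug doses (not always all listed) in √10 steps, then fixed, stained and imaged at 4× after 5 days.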

LXF-289 = test system: LXF-289
How it was run: as §1

NCI-H2085 = test system: NCI-H2085
How it was run: as §1

NCI-H1651 = test system: NCI-H1651
How it was run: as §1

LU99A = test system: LU99A
How it was run: as §1

NCI-H1755 = test system: NCI-H1755
How it was run: as §1

NCI-H1993 = test system: NCI-H1993
How it was run: as §1

NCI-H1355 = test system: NCI-H1355
How it was run: as §1

BEN = test system: BEN
How it was run: as §1

PC-14 = test system: PC-14
How it was run: as §1

NCI-H1437 = test system: NCI-H1437
How it was run: as §1

NCI-H460 = test system: NCI-H460
How it was run: as §1

NCI-H1666 = test system: NCI-H1666
How it was run: as §1

HCC-44 = test system: HCC-44
How it was run: as §1

CAL-12T = test system: CAL-12T
How it was run: as §1

NCI-H2170 = test system: NCI-H2170
How it was run: as §1

NCI-H1792 = test system: NCI-H1792
How it was run: as §1

Cc1cn(-c2cc(NC(=O)c3ccc(C)c(Nc4nccc(-c5cccnc5)n4)c3)cc(C(F)(F)F)c2)cn1 [Nilotinib] + NC(=O)Nc1cc(-c2cccc(F)c2)sc1C(=O)N[C@H]1CCCNC1 [AZD7762] (partner 0.2 µM)
relative viability (NCI-H2087; first compound 0.001 µM): 0.828 | relative viability (NCI-H2087; first compound 0.003162 µM): 1.58 | relative viability (NCI-H2087; first compound 0.01 µM): 1.98 | relative viability (NCI-H2087; first compound 0.03162 µM): 0.86 | relative viability (NCI-H2087; first compound 0.1 µM): 0.893 | relative viability (LXF-289; first compound 0.001 µM): 1.03 | relative viability (LXF-289; first compound 0.003162 µM): 1.2 | relative viability (LXF-289; first compound 0.01 µM): 1.21 | relative viability (LXF-289; first compound 0.03162 µM): 1.08 | relative viability (LXF-289; first compound 0.1 µM): 0.642 | relative viability (NCI-H2085; first compound 0.001 µM): 0.978 | relative viability (NCI-H2085; first compound 0.003162 µM): 0.942 | relative viability (NCI-H2085; first compound 0.01 µM): 1.03 | relative viability (NCI-H2085; first compound 0.03162 µM): 0.793 | relative viability (NCI-H2085; first compound 0.1 µM): 0.527 | relative viability (NCI-H1651; first compound 0.001 µM): 0.444 | relative viability (NCI-H1651; first compound 0.003162 µM): 0.394 | relative viability (NCI-H1651; first compound 0.01 µM): 0.572 | relative viability (NCI-H1651; first compound 0.03162 µM): 0.401 | relative viability (NCI-H1651; first compound 0.1 µM): 0.239 | relative viability (LU99A; first compound 0.001 µM): 0.247 | relative viability (LU99A; first compound 0.003162 µM): 0.513 | relative viability (LU99A; first compound 0.01 µM): 0.498 | relative viability (LU99A; first compound 0.03162 µM): 0.33 | relative viability (LU99A; first compound 0.1 µM): 0.199 | relative viability (NCI-H1755; first compound 0.001 µM): 0.412 | relative viability (NCI-H1755; first compound 0.003162 µM): 0.499 | relative viability (NCI-H1755; first compound 0.01 µM): 0.399 | relative viability (NCI-H1755; first compound 0.03162 µM): 0.352 | relative viability (NCI-H1755; first compound 0.1 µM): 0.4 | relative viability (NCI-H1993; first compound 0.001 µM): 0.875 | relative viability (NCI-H1993; first compound 0.003162 µM): 0.803 | relative viability (NCI-H1993; first compound 0.01 µM): 0.819 | relative viability (NCI-H1993; first compound 0.03162 µM): 0.754 | relative viability (NCI-H1993; first compound 0.1 µM): 0.559 | relative viability (NCI-H1355; first compound 0.001 µM): 0.718 | relative viability (NCI-H1355; first compound 0.003162 µM): 0.782 | relative viability (NCI-H1355; first compound 0.01 µM): 0.801 | relative viability (NCI-H1355; first compound 0.03162 µM): 0.439 | relative viability (NCI-H1355; first compound 0.1 µM): 0.583 | relative viability (BEN; first compound 0.001 µM): 0.76 | relative viability (BEN; first compound 0.003162 µM): 0.649 | relative viability (BEN; first compound 0.01 µM): 0.589 | relative viability (BEN; first compound 0.03162 µM): 0.6 | relative viability (BEN; first compound 0.1 µM): 0.53 | relative viability (PC-14; first compound 0.001 µM): 0.359 | relative viability (PC-14; first compound 0.003162 µM): 0.285 | relative viability (PC-14; first compound 0.01 µM): 0.399 | relative viability (PC-14; first compound 0.03162 µM): 0.305 | relative viability (NCI-H1437; first compound 0.001 µM): 1.16 | relative viability (NCI-H1437; first compound 0.003162 µM): 0.888 | relative viability (NCI-H1437; first compound 0.01 µM): 1.12 | relative viability (NCI-H1437; first compound 0.03162 µM): 0.899 | relative viability (NCI-H1437; first compound 0.1 µM): 1.1 | relative viability (NCI-H460; first compound 0.001 µM): 0.549 | relative viability (NCI-H460; first compound 0.003162 µM): 0.603 | relative viability (NCI-H460; first compound 0.01 µM): 0.389 | relative viability (NCI-H460; first compound 0.03162 µM): 0.427 | relative viability (NCI-H460; first compound 0.1 µM): 0.41 | relative viability (NCI-H1666; first compound 0.001 µM): 0.78 | relative viability (NCI-H1666; first compound 0.01 µM): 0.855 | relative viability (NCI-H1666; first compound 0.03162 µM): 0.74 | relative viability (NCI-H1666; first compound 0.1 µM): 0.724 | relative viability (HCC-44; first compound 0.001 µM): 0.969 | relative viability (HCC-44; first compound 0.003162 µM): 1 | relative viability (HCC-44; first compound 0.01 µM): 0.996 | relative viability (HCC-44; first compound 0.1 µM): 0.923 | relative viability (CAL-12T; first compound 0.001 µM): 0.607 | relative viability (CAL-12T; first compound 0.003162 µM): 0.423 | relative viability (CAL-12T; first compound 0.01 µM): 0.631 | relative viability (CAL-12T; first compound 0.03162 µM): 0.539 | relative viability (CAL-12T; first compound 0.1 µM): 0.605 | relative viability (NCI-H2170; first compound 0.001 µM): 0.744 | relative viability (NCI-H2170; first compound 0.003162 µM): 1.32 | relative viability (NCI-H2170; first compound 0.01 µM): 0.856 | relative viability (NCI-H2170; first compound 0.03162 µM): 0.602 | relative viability (NCI-H2170; first compound 0.1 µM): 0.758 | relative viability (NCI-H1792; first compound 0.001 µM): 0.483 | relative viability (NCI-H1792; first compound 0.003162 µM): 0.638 | relative viability (NCI-H1792; first compound 0.01 µM): 0.467 | relative viability (NCI-H1792; first compound 0.03162 µM): 0.385 | relative viability (NCI-H1792; first compound 0.1 µM): 0.263
